Assays:
[1] = Mouse weight changes and symptoms, repeated intravenous administration (HCT116 model); type: in vivo; details: iv once a day, Example 1 30 mg/kg, topotecan 2 mg/kg
Procedure: Female nude mice at 6 weeks (BALB/c nu/nu, Charles River) were raised in a germ-free facility where temperature and humidity were maintained at proper levels during the whole experimental period. After anesthetizing each mouse, the human rectal cancer cell line HCT116 was transplanted in rectal tissues at the density of 4×10^7 cells/mouse, and then the opened rectum was sealed with surgical clips. After transplanting the rectal cancer cell line, the tumor volume was measured with calipers. When the tumor volume reached 54.5 mm^3, the compound of the present invention prepared in example 1 was treated thereto. Particularly, for the experimental group, the compound of example 1 was dissolved in the solvent composed of saline (80%), DMAC (10%), and tween 80 (10%), which is indicated as ‘solvent A’ hereinafter, at the concentration of 30 mg/kg. The prepared compound solution was intravenously administered to the experimental group mice once a day at the dose of […]. The control was treated with the solvent A only without the compound once a day via oral administration at the dose of 15 ml/kg. The comparative group was treated with the solvent A containing topotecan (2 mg/kg) via intravenous injection once a day at the dose of 15 ml/kg. The weight and the tumor volume were measured once a day on day 0, 2, 3, 4, 5, 6, and 8.
Tumor volume was calculated by the following mathematical formula 1. To investigate the toxicity according to the repeated intravenous administration of the compound of example 1, mouse weight changes were observed and presented in Table 3. Inhibition rate (%) in Table 4 was calculated by the following mathematical formula 2, which indicates the inhibition of tumor growth by the compound presented by %. Tumor Volume(mm^3)=(major axis length of tumor cells, mm)×(minor axis length of tumor cells, mm)^2×0.5 [Mathematical Formula 1] Inhibition Rate (%)=[(Tumor Volume of Control−Tumor Volume of Experimental Group)/(Tumor Volume of Control)]×100 [Mathematical Formula 2]

[2] = system: human kidney cancer cell line Caki-1; test: In vivo anticancer activity, intravenous injection 2, Caki-1 kidney cancer in nude mice; set-up: species or system mouse; details: Example 1 20 mg/kg/day, topotecan 2 mg/kg/day
Procedure: To evaluate the inhibition effect of the compound prepared in example 1 administered via intravenous injection on the growth of kidney cancer, in vivo anticancer activity in mouse was measured. Particularly, nude-mice were grouped for experimental and control groups (5 mice per group). Changes in body weight, tumor volume, and tumor weight were measured to evaluate in vivo anticancer activity.
(§1) Female nude mice at 6 weeks (BALB/c nu/nu, Charles River) were raised in a germ-free facility where temperature and humidity were maintained at proper levels during the whole experimental period. After anesthetizing each mouse, the human kidney cancer cell line Caki-1 was transplanted in kidney tissues at the density of 4×10^7 cells/mouse, and then the opened kidney was sealed with surgical clips. After transplanting the kidney cancer cell line, the tumor volume was measured with calipers. When the tumor volume reached 52.7 mm^3, the compound of the present invention prepared in example 1 was treated thereto. Particularly, for the experimental group, the compound of example 1 was dissolved in the solvent composed of cremophor (10%), DMAC (10%), and pH 10 buffer […], which is indicated as ‘solvent B’ hereinafter, at the concentration of 20 mg/kg. The prepared compound solution was intravenously administered to the experimental group mice once a day at the dose of […]. The control was treated with the solvent B only without the compound once a day via oral administration at the dose of 15 ml/kg. The comparative group was treated with the solvent B containing topotecan (2 mg/kg) via intravenous injection once a day at the dose of 15 ml/kg. The weight and the tumor volume were measured once a day on day 0, 2, 4, 7, 9, 11, and 14.
(§2) Tumor volume was calculated by the mathematical formula 1 of Experimental Example 4. To investigate the toxicity according to the repeated intravenous administration of the compound of example 1, mouse weight changes were observed and presented in Table 5. Inhibition rate (%) in Table 6 was calculated by the mathematical formula 2, which indicates the inhibition of tumor growth by the compound presented by %.

[3] = Mouse weight changes and symptoms, repeated intravenous administration (Caki-1 model); type: in vivo; details: iv, Example 1 20 mg/kg/day, topotecan 2 mg/kg/day
Procedure: as §1, §2

[4] = system: B16F10 melanoma cell line; test: Tumor growth, B16F10 melanoma in C57BL mice, intraperitoneal administration; type: in vivo, mouse; details: Example 1 20 mg/kg/day, topotecan 2 mg/kg/2 day; for Tumor volume changes (mm^3): ip; for Inhibition rate (%) of tumor volume: vs control
Procedure: Particularly, the experimental group composed of 5 female mice (C57BL) at 6 weeks was transplanted with B16F10 melanoma cell line. After the cancer cells were grown, the mice were treated with the compound of formula 1 via intraperitoneal injection at the dose of […] for 5 days. Inhibition of angiogenesis and the tumor growth were observed. In the meantime, the control group was treated with the mixed solution comprising 10% DMAC, 10% cremophor and 80% buffer (pH 10) every day. The comparative group was treated with topotecan at the dose of 2 mg/kg once every other day. Weight changes and the newly generated blood vessels were measured and the results are shown in Table 7, Table 8, FIG. 7, and FIG. 8. The tumor volume shown in Table 8 was calculated by the mathematical formula 1 of experimental example 4 and the inhibition rate was calculated by the mathematical formula 2 of experimental example 4.

[5] = Mouse weight changes and symptoms, intraperitoneal administration (B16F10 metastasis experiment); type: in vivo; details: ip, Example 1 20 mg/kg/day, topotecan 2 mg/kg/2 day
Procedure: Particularly, the experimental group composed of 6 female mice (C57BL) at 6 weeks was transplanted with B16F10 melanoma cell line. After the cancer cells were grown, the mice were treated with the compound of formula 1 via intraperitoneal injection at the dose of […] every day for 12 days. Inhibition of angiogenesis and the tumor growth were observed. In the meantime, the control group was treated with purified water every day. The comparative group was treated with topotecan at the dose of 2 mg/kg once every other day. Weight changes and cancer metastasis were measured and the results are shown in Table 9, Table 10, and FIG. 10.

CC[C@@]1(O)C(=O)OCc2c1cc1n(c2=O)Cc2cc3c(CN(C)C)c(O)ccc3nc2-1 [topotecan, reference compound]
Mouse weight changes (%) ([1]; day 0): 100.0 ± 0.0% | Mouse weight changes (%) ([1]; day 2): 101.7 ± 1.0% | Mouse weight changes (%) ([1]; day 3): 101.8 ± 1.1% | Mouse weight changes (%) ([1]; day 4): 103.2 ± 5.4% | Mouse weight changes (%) ([1]; day 5): 99.1 ± 1.4% | Mouse weight changes (%) ([1]; day 6): 98.7 ± 1.7% | Mouse weight changes (%) ([1]; day 8): 95.6 ± 1.4% | Tumor volume (mm^3) ([2]; day 0, iv): 0.0 ± 0.0 mm^3 | Tumor volume (mm^3) ([2]; day 2, iv): 16.7 ± 2.3 mm^3 | Inhibition rate (%) of tumor volume ([2]; day 2, vs control): 20.1% | Tumor volume (mm^3) ([2]; day 4, iv): 38.7 ± 4.8 mm^3 | Inhibition rate (%) of tumor volume ([2]; day 4, vs control): 26.6% | Tumor volume (mm^3) ([2]; day 7, iv): 67.8 ± 8.6 mm^3 | Inhibition rate (%) of tumor volume ([2]; day 7, vs control): 33.8% | Tumor volume (mm^3) ([2]; day 9, iv): 88.5 ± 19.6 mm^3 | Inhibition rate (%) of tumor volume ([2]; day 9, vs control): 40.6% | Tumor volume (mm^3) ([2]; day 11, iv): 120.9 ± 36.0 mm^3 | Inhibition rate (%) of tumor volume ([2]; day 11, vs control): 40.9% | Tumor weight ([2]; day 14 (final day), iv): 472.4 ± 137.6 mg | Tumor volume (mm^3) ([2]; day 14, iv): 156.9 ± 51.3 mm^3 | Inhibition rate (%) of tumor volume ([2]; day 14, vs control): 45.8% | Inhibition rate (%) of tumor weight ([2]; day 14, vs control): 48.0% | Mouse weight changes (%) ([3]; day 0): 100.0 ± 0.0% | Mouse weight changes (%) ([3]; day 2): 104.7 ± 1.9% | Mouse weight changes (%) ([3]; day 4): 103.8 ± 3.8% | Mouse weight changes (%) ([3]; day 7): 103.4 ± 2.6% | Mouse weight changes (%) ([3]; day 9): 101.8 ± 3.6% | Mouse weight changes (%) ([3]; day 11): 103.0 ± 3.6% | Mouse weight changes (%) ([3]; day 14): 102.9 ± 5.3% | Tumor volume changes (mm^3) ([4]; day 0): 0.0 ± 0.0 mm^3 | Tumor volume changes (mm^3) ([4]; day 3): 20.9 ± 2.6 mm^3 | Inhibition rate (%) of tumor volume ([4]; day 3): 37.4% | Tumor volume changes (mm^3) ([4]; day 4): 27.1 ± 2.3 mm^3 | Inhibition rate (%) of tumor volume ([4]; day 4): 42.4% | Tumor volume changes (mm^3) ([4]; day 5): 42.9 ± 4.5 mm^3 | Inhibition rate (%) of tumor volume ([4]; day 5): 45.4% | Mouse weight changes (%) ([5]; day 0): 100.0 ± 0.0% | Mouse weight changes (%) ([5]; day 2): 101.0 ± 2.9% | Mouse weight changes (%) ([5]; day 5): 103.5 ± 6.1% | Mouse weight changes (%) ([5]; day 7): 104.0 ± 4.6% | Mouse weight changes (%) ([5]; day 9): 104.3 ± 6.2% | Mouse weight changes (%) ([5]; day 12): 103.7 ± 5.5%

From patent US8940936B2, “Aryloxy phenoxy acrylic compound having HIF-1 inhibition activity, method for preparing same, and pharmaceutical composition containing same as an active ingredient” (Korea Research Institute of Bioscience and Biotechnology, priority 2010, dated 2015)
